Results taken from ChEMBL document CHEMBL4308841, “Synthesis, in vitro antiproliferative activity, and kinase inhibitory effects of pyrazole-containing diarylureas and diarylamides” (Eur J Med Chem, 2018).

Legend:
[1] = test system: SK-OV-3; assay: Growth inhibition of human SKOV3 cells incubated for 48 hrs by sulforhodamine B assay; assay type: functional, cell-based; conditions: SK-OV-3, 48 h
[2] = test system: BT-549; assay: Growth inhibition of human BT549 cells incubated for 48 hrs by sulforhodamine B assay; assay type: functional, cell-based; conditions: BT-549, 48 h
[3] = test system: NCI-H322M; assay: Growth inhibition of human NCI-H322M cells assessed as cell growth at 0.01 uM incubated for 48 hrs by sulforhodamine B assay relative to control; assay type: functional; conditions: read-out: Activity
[4] = test system: NCI-H522; assay: Growth inhibition of human NCI-H522 cells assessed as cell growth at 0.01 uM incubated for 48 hrs by sulforhodamine B assay relative to control; assay type: functional; conditions: NCI-H522, 48 h, read-out: Activity
[5] = test system: SW-620; assay: Growth inhibition of human SW620 cells assessed as cell growth at 0.01 uM incubated for 48 hrs by sulforhodamine B assay relative to control; assay type: functional; conditions: SW-620, 48 h, read-out: Activity
[6] = test system: LOX IMVI; assay: Growth inhibition of human LOXIMVI cells assessed as cell growth at 0.01 uM incubated for 48 hrs by sulforhodamine B assay relative to control; assay type: functional; conditions: read-out: Activity
[7] = test system: SK-MEL-5; assay: Growth inhibition of human SK-MEL-5 cells assessed as cell growth at 0.01 uM incubated for 48 hrs by sulforhodamine B assay relative to control; assay type: functional; conditions: SK-MEL-5, 48 h, read-out: Activity
[8] = test system: UACC-257; assay: Growth inhibition of human UACC257 cells assessed as cell growth at 0.01 uM incubated for 48 hrs by sulforhodamine B assay relative to control; assay type: functional; conditions: UACC-257, 48 h, read-out: Activity
[9] = test system: UACC-62; assay: Growth inhibition of human UACC62 cells assessed as cell growth at 0.01 uM incubated for 48 hrs by sulforhodamine B assay relative to control; assay type: functional; conditions: UACC-62, 48 h, read-out: Activity
[10] = test system: 786-0; assay: Growth inhibition of human 786-0 cells assessed as cell growth at 0.01 uM incubated for 48 hrs by sulforhodamine B assay relative to control; assay type: functional; conditions: 786-0, 48 h, read-out: Activity
[11] = test system: PC-3; assay: Growth inhibition of human PC3 cells assessed as cell growth at 0.01 uM incubated for 48 hrs by sulforhodamine B assay relative to control; assay type: functional; conditions: PC-3, 48 h, read-out: Activity
[12] = test system: DU-145; assay: Growth inhibition of human DU145 cells assessed as cell growth at 0.01 uM incubated for 48 hrs by sulforhodamine B assay relative to control; assay type: functional; conditions: DU-145, 48 h, read-out: Activity
[13] = test system: MDA-MB-231; assay: Growth inhibition of human MDA-MB-231 cells assessed as cell growth at 0.01 uM incubated for 48 hrs by sulforhodamine B assay relative to control; assay type: functional; conditions: MDA-MB-231, 48 h, read-out: Activity
[14] = test system: MDA-MB-468; assay: Growth inhibition of human MDA-MB-468 cells assessed as cell growth at 0.01 uM incubated for 48 hrs by sulforhodamine B assay relative to control; assay type: functional; conditions: MDA-MB-468, 48 h, read-out: Activity
[15] = test system: NCI-H322M; assay: Growth inhibition of human NCI-H322M cells assessed as cell growth at 0.1 uM incubated for 48 hrs by sulforhodamine B assay relative to control; assay type: functional; conditions: read-out: Activity
[16] = test system: NCI-H460; assay: Growth inhibition of human NCI-H460 cells assessed as cell growth at 0.1 uM incubated for 48 hrs by sulforhodamine B assay relative to control; assay type: functional; conditions: NCI-H460, 48 h, read-out: Activity
[17] = test system: LOX IMVI; assay: Growth inhibition of human LOXIMVI cells assessed as cell growth at 0.1 uM incubated for 48 hrs by sulforhodamine B assay relative to control; assay type: functional; conditions: read-out: Activity
[18] = test system: 786-0; assay: Growth inhibition of human 786-0 cells assessed as cell growth at 0.1 uM incubated for 48 hrs by sulforhodamine B assay relative to control; assay type: functional; conditions: 786-0, 48 h, read-out: Activity
[19] = test system: A498; assay: Growth inhibition of human A498 cells assessed as cell growth at 0.1 uM incubated for 48 hrs by sulforhodamine B assay relative to control; assay type: functional; conditions: A498, 48 h, read-out: Activity
[20] = test system: COLO 205; assay: Growth inhibition of human COLO205 cells assessed as cell growth at 1 uM incubated for 48 hrs by sulforhodamine B assay relative to control; assay type: functional; conditions: COLO 205, 48 h, read-out: Activity
[21] = test system: SW-620; assay: Growth inhibition of human SW620 cells assessed as cell growth at 1 uM incubated for 48 hrs by sulforhodamine B assay relative to control; assay type: functional; conditions: SW-620, 48 h, read-out: Activity
[22] = test system: SF-295; assay: Growth inhibition of human SF295 cells assessed as cell growth at 1 uM incubated for 48 hrs by sulforhodamine B assay relative to control; assay type: functional; conditions: SF-295, 48 h, read-out: Activity
[23] = test system: SNB-19; assay: Growth inhibition of human SNB19 cells assessed as cell growth at 1 uM incubated for 48 hrs by sulforhodamine B assay relative to control; assay type: functional; conditions: SNB-19, 48 h, read-out: Activity
[24] = test system: SNB-75; assay: Growth inhibition of human SNB75 cells assessed as cell growth at 1 uM incubated for 48 hrs by sulforhodamine B assay relative to control; assay type: functional; conditions: SNB-75, 48 h, read-out: Activity
[25] = test system: OVCAR-5; assay: Growth inhibition of human OVCAR5 cells assessed as cell growth at 1 uM incubated for 48 hrs by sulforhodamine B assay relative to control; assay type: functional; conditions: OVCAR-5, 48 h, read-out: Activity
[26] = test system: CAKI-1; assay: Growth inhibition of human Caki1 cells assessed as cell growth at 1 uM incubated for 48 hrs by sulforhodamine B assay relative to control; assay type: functional; conditions: CAKI-1, 48 h, read-out: Activity
[27] = test system: DU-145; assay: Growth inhibition of human DU145 cells assessed as cell growth at 1 uM incubated for 48 hrs by sulforhodamine B assay relative to control; assay type: functional; conditions: DU-145, 48 h, read-out: Activity
[28] = test system: NCI-H522; assay: Growth inhibition of human NCI-H522 cells assessed as cell growth at 100 uM incubated for 48 hrs by sulforhodamine B assay relative to control; assay type: functional; conditions: NCI-H522, 48 h, read-out: Activity
[29] = test system: SF-295; assay: Growth inhibition of human SF295 cells assessed as cell growth at 100 uM incubated for 48 hrs by sulforhodamine B assay relative to control; assay type: functional; conditions: SF-295, 48 h, read-out: Activity
[30] = test system: SNB-75; assay: Growth inhibition of human SNB75 cells assessed as cell growth at 100 uM incubated for 48 hrs by sulforhodamine B assay relative to control; assay type: functional; conditions: SNB-75, 48 h, read-out: Activity
[31] = test system: M14; assay: Growth inhibition of human M14 cells assessed as cell growth at 100 uM incubated for 48 hrs by sulforhodamine B assay relative to control; assay type: functional; conditions: M14, 48 h, read-out: Activity
[32] = test system: OVCAR-4; assay: Growth inhibition of human OVCAR4 cells assessed as cell growth at 100 uM incubated for 48 hrs by sulforhodamine B assay relative to control; assay type: functional; conditions: OVCAR-4, 48 h, read-out: Activity
[33] = test system: SN12C; assay: Growth inhibition of human SN12C cells assessed as cell growth at 100 uM incubated for 48 hrs by sulforhodamine B assay relative to control; assay type: functional; conditions: read-out: Activity
[34] = read-out: LC50 (the source's name)
[35] = read-out: pLC50 (the source's name) (converted)

COc1cc(Cl)cc(-c2nn(-c3cccc(NC(=O)Nc4ccc(Cl)c(C(F)(F)F)c4)c3)cc2-c2ccncc2)c1
GI50 ([1]; read-out: GI50): 3.15 µM | CC50 [1, 34]: > 100 µM | TGI ([1]; read-out: TGI): 95.5 µM | GI50 ([1]; read-out: pGI50 (converted)): 3.16 µM | CC50 [1, 35]: > 100 µM | TGI ([1]; read-out: pTGI (converted)): 11.7 µM | GI50 ([2]; read-out: GI50): 2.38 µM | CC50 [2, 34]: 25.8 µM | TGI ([2]; read-out: TGI): 65.5 µM | GI50 ([2]; read-out: pGI50 (converted)): 2.4 µM | CC50 [2, 35]: 28.8 µM | TGI ([2]; read-out: pTGI (converted)): 6.61 µM | growth at 0.01 µM [3]: 96% | growth at 0.01 µM [4]: 93% | growth at 0.01 µM [5]: 98% | growth at 0.01 µM [6]: 98% | growth at 0.01 µM [7]: 96% | growth at 0.01 µM [8]: 91% | growth at 0.01 µM [9]: 95% | growth at 0.01 µM [10]: 96% | growth at 0.01 µM [11]: 94% | growth at 0.01 µM [12]: 103% | growth at 0.01 µM [13]: 93% | growth at 0.01 µM [14]: 92% | growth at 0.1 µM [15]: 98% | growth at 0.1 µM [16]: 102% | growth at 0.1 µM [17]: 97% | growth at 0.1 µM [18]: 96% | growth at 0.1 µM [19]: 59% | growth at 1 µM [20]: 80% | growth at 1 µM [21]: 63% | growth at 1 µM [22]: 31% | growth at 1 µM [23]: 87% | growth at 1 µM [24]: 68% | growth at 1 µM [25]: 81% | growth at 1 µM [26]: 45% | growth at 1 µM [27]: 64% | growth at 100 µM [28]: -66% | growth at 100 µM [29]: -82% | growth at 100 µM [30]: -38% | growth at 100 µM [31]: -70% | growth at 100 µM [32]: -16% | growth at 100 µM [33]: -43%

COc1cc(Cl)cc(-c2nn(-c3cccc(NC(=O)c4ccc(N5CCOCC5)c(C(F)(F)F)c4)c3)cc2-c2ccncc2)c1
GI50 ([1]; read-out: GI50): > 100 µM | CC50 [1, 34]: > 100 µM | TGI ([1]; read-out: TGI): > 100 µM | GI50 ([1]; read-out: pGI50 (converted)): > 100 µM | CC50 [1, 35]: > 100 µM | TGI ([1]; read-out: pTGI (converted)): > 100 µM | GI50 ([2]; read-out: GI50): 5.9 µM | CC50 [2, 34]: > 100 µM | TGI ([2]; read-out: TGI): > 100 µM | GI50 ([2]; read-out: pGI50 (converted)): 89.1 µM | CC50 [2, 35]: > 100 µM | TGI ([2]; read-out: pTGI (converted)): > 100 µM | growth at 0.01 µM [3]: 97% | growth at 0.01 µM [4]: 94% | growth at 0.01 µM [5]: 96% | growth at 0.01 µM [6]: 97% | growth at 0.01 µM [7]: 97% | growth at 0.01 µM [8]: 91% | growth at 0.01 µM [9]: 95% | growth at 0.01 µM [10]: 96% | growth at 0.01 µM [11]: 97% | growth at 0.01 µM [12]: 108% | growth at 0.01 µM [13]: 99% | growth at 0.01 µM [14]: 94% | growth at 0.1 µM [15]: 94% | growth at 0.1 µM [16]: 102% | growth at 0.1 µM [17]: 95% | growth at 0.1 µM [18]: 95% | growth at 0.1 µM [19]: 85% | growth at 1 µM [20]: 104% | growth at 1 µM [21]: 103% | growth at 1 µM [22]: 73% | growth at 1 µM [23]: 92% | growth at 1 µM [24]: 51% | growth at 1 µM [25]: 75% | growth at 1 µM [26]: 94% | growth at 1 µM [27]: 105% | growth at 100 µM [28]: 31% | growth at 100 µM [29]: -32% | growth at 100 µM [30]: 18% | growth at 100 µM [31]: 5% | growth at 100 µM [32]: 38% | growth at 100 µM [33]: 55%
